According to ChEMBL document CHEMBL1133354, “5-Thienyltryptamine derivatives as serotonin 5-HT1B/1D receptor agonists: potential treatments for migraine” (Bioorg Med Chem Lett, 2000):

Experiments:
[1] = biological target: 5-hydroxytryptamine receptor 1B (Homo sapiens, UniProt P28222); test: Binding affinity for human 5-hydroxytryptamine 1B receptor
[2] = biological target: 5-hydroxytryptamine receptor 1D (Homo sapiens, UniProt P28221); test: Binding affinity for human 5-hydroxytryptamine 1D receptor
5-hydroxytryptamine receptor 1D, sequence (P28221 whole entry): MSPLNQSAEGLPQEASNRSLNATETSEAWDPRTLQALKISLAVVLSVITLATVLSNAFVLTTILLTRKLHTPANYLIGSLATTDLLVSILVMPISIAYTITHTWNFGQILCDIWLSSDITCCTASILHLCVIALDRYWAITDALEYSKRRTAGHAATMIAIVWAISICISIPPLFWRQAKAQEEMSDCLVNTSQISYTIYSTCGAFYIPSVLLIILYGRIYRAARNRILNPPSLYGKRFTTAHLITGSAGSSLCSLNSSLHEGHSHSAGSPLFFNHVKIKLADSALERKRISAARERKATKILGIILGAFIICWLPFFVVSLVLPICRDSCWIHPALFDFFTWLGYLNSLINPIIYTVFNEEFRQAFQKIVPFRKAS

5-hydroxytryptamine receptor 1B, sequence (P28222 whole entry): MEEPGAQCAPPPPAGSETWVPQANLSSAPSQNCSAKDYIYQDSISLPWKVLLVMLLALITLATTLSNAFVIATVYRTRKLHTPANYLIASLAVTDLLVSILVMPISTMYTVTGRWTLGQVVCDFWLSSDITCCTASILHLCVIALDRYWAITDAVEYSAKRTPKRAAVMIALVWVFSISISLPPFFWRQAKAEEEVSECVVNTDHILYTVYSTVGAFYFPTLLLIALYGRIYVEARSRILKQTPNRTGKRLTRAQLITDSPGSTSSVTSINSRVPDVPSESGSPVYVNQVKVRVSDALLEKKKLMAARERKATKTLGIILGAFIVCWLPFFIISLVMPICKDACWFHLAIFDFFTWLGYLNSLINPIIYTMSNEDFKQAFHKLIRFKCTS

Row | SMILES | Ki [1] | Ki [2]
1 | CN(C)CCc1c[nH]c2ccc(-c3cccs3)cc12 | 23 nM | 0.7 nM
2 | CN(C)CCc1c[nH]c2ccc(-c3ccsc3)cc12 | 17 nM | 0.5 nM
3 | C1=CCN(CCc2c[nH]c3ccc(-c4cccs4)cc23)C1 | 107 nM | 4.5 nM
4 | CC1CCC(C)N1CCc1c[nH]c2ccc(-c3cccs3)cc12 (configuration not stated) | 70 nM | 2.5 nM
5 | OC[C@@H]1CCCN1CCc1c[nH]c2ccc(-c3cccs3)cc12 | 113 nM | 8.2 nM
6 | Cc1ccc(-c2ccc3[nH]cc(CCN(C)C)c3c2)s1 | 133 nM | 3.2 nM
7 | c1csc(-c2ccc3[nH]cc(CCN4CCCC4)c3c2)c1 | 714 nM | 19 nM
8 | NCCc1c[nH]c2ccc(-c3cccs3)cc12 | 32 nM | 1.7 nM
9 | COC[C@@H]1CCCN1CCc1c[nH]c2ccc(-c3cccs3)cc12 | 9.9 nM | 1.8 nM
10 | CN(C)CCc1c[nH]c2ccc(-c3ccc(Cl)s3)cc12 | 303 nM | 7.6 nM
11 | Clc1ccc(-c2ccc3[nH]cc(CCN4CCCC4)c3c2)s1 | 476 nM | 31 nM
